Data: patent US12102633B2, “Spirolactone compounds” (Quixgen, Inc., priority 2017, dated 2024)

How the values were obtained:
[1] = test system: T1, Mouse ACC (ACC protein purified from liver); test: Mouse ACC enzymatic activity assay; format: biochemical; details: read-out: EA-CoA mACC IC50
T1 construct: ACC protein was purified by taking advantage of the biotinylation in the carboxylase domain
Procedure, shortened: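 ACC affinity-purified from livers of male C57BL/6J mice (biotin-based capture), pre-incubated 10 min at 37 °C with compound. Reaction with 0.5 mM acetyl-CoA, 4.0 mM ATP, 15 mM 13C-NaHCO3, 0.5 mM citrate, pH 7.5, 1 h at 37 °C; malonyl-13C-CoA quantified by LC-MS/MS as pmoles/mg protein per minute.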

[2] = Standard PK in CD-1 mice (m-PK); format: in vivo, mouse; details: for half-life / clearance: male; for half-life: CD-1, mouse, whole blood, read-out: m-PK T1/2 (converted); for clearance: CD-1, whole blood, 1 mg/kg IV, read-out: m-PK Cl; for clearance / m-PK F: mouse; for m-PK F: 5 mg/kg PO vs 1 mg/kg IV
Protocol: Standard PK. Male catheterized CD-1 mice were treated with Compound 6 prepared in vehicle (5% DMSO+10% Solutol+85% PBS, PH=7.4) at doses of 1 mg/kg for IV (5 mL/kg) or 5 mg/kg for PO (10 mL/kg). Blood samples (20 VL) were collected at 0.083, 0.25, 0.5, 1, 2, 4, 8, and 24 hrs post dose and mixed with 60 VL 0.1 M sodium citrate. Upon extraction by using acetonitrile, blood concentrations of Compound 6 were quantitated by LC-MS/MS. PK parameters were calculated by using WinNonlin® 6.4.

Human sebocytes = test: Lipogenesis of human sebocytes; format: cell-based; details: 96 hours, nile red, read-out: LG-Sebo IC50
Protocol: Human sebocytes (Celprogen) were grown in collagen-coated 96-well culture microplate (White/Clear bottom, Coming BioCoat) with growth media till 100% confluency. Culture media was changed to growth media plus 100 μM arachidonic acid (Sigma) and 10 μM rosiglitazone (Tocris) with compounds prepared in DMSO (1:1000 dilution in growth media). Cells were treated with compounds for 96 hours with media containing compounds changed after 48 hours. Upon completion of treatment, cells were washed with 200 μL Phosphate Buffered Saline (PBS) and then fixed by adding 100 μL 4% formaldehyde (Sigma) and incubated at room temperature for 1 hour. Cells were then washed 3 times with PBS. Microplate was stained with 100 μL nile red solution prepared in PBS (2 mg/mL, 1:400 dilution) by incubating at 37° C. for 1 hour and then washed 3 times with PBS. The fluorescence was read at Ex 492 nm and Em 595 nm (TECAN SpectrofluorPlus). Effect of compounds on lipogenesis in sebocytes was calculated by % of DMSO vehicle control.

Row | IC50 [1] [nM] | half-life [2] [min] | clearance [2] [mL/min/kg] | m-PK F [2] | IC50 (Human sebocytes) [nM] | SMILES
1 | 0.34 | 30 | 15.2 | F: 53% |  | COc1cc(C(=O)N2CCC3(CC2)Cc2ccc(Nc4ccnn4C)cc2C(=O)O3)nc2c(OC)cccc12 [Example 6, 1′-(4,8-dimethoxyquinoline-2-carbonyl)-7-((1-methyl-1H-pyrazol-5-yl)amino)spiro[isochroman-3,4′-piperidin]-1-one]
2 | 2.4 | 25.2 | 46.5 | F: 4.9% | 25 | COc1cc(C(=O)N2CCC3(CC2)Cc2ccc(C(C)C)cc2C(=O)O3)nc2c(OC)cccc12 [Example 2, 1′-(4,8-dimethoxyquinoline-2-carbonyl)-7-isopropylspiro[isochroman-3,4′-piperidin]-1-one]
